Results: patent publication US11697646B2, “Triazole N-linked carbamoyl cyclohexyl acids as LPA antagonists” (BRISTOL-MYERS SQUIBB COMPANY, priority 2017, dated 2023)

Biological target: T1, human LPA1 (Homo sapiens, UniProt Q92633)
T1 construct: expressed in transfected cells; host or cells: Chinese hamster ovary (CHO) cells
Assay: LPA1 functional antagonist assay (calcium flux)
Assay type: cell-based
Settings: human LPA1 functional antagonist assay; read-out: hLPA1 IC50
Experimental: The effectiveness of compounds of the present invention as LPA1 inhibitors can be determined in an LPA1 functional antagonist assay as follows:
The cells were then equilibrated to room temperature for 30 minutes before the assay. […] IC50 values were determined by fitting data to a 4-parameter logistic equation (GraphPad Prism, San Diego Calif.).

T1 sequence (Q92633 whole entry): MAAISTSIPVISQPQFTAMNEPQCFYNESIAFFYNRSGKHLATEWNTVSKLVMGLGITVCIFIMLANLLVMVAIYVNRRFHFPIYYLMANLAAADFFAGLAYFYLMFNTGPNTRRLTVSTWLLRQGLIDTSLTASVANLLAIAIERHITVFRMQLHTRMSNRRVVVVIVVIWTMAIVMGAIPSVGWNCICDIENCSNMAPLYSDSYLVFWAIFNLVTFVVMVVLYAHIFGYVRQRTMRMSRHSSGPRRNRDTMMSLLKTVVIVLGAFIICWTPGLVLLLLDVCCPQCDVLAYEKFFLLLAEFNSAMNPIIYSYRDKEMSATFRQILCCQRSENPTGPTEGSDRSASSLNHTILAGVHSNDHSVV

Question: How did the IC50 turn out when `Cc1nc(-c2nnn(C)c2CNC(=O)O[C@@H](C)C(C)C)ccc1O[C@H]1CCC[C@H](C(=O)O)C1` [Example 173, (1S,3S)-3((2-methyl-6-(1-methyl-5-((((((S)-3-methylbutan-2-yl)oxy)carbonyl)amino)methyl)-1H-1,2,3-triazol-4-yl)pyridin-3-yl)oxy)cyclohexane-1-carboxylic acid] was run?
Answer: The IC50 was 167 nM.

Question: `Cc1nc(-c2nnn(C)c2CNC(=O)O[C@@H](C)C(F)(F)F)ccc1O[C@H]1CCC[C@H](C(=O)O)C1` [Example 174, (1S,3S)-3-((2-methyl-6-(1-methyl-5-((((((S)-1,1,1-trifluoropropan-2-yl)oxy)carbonyl)amino)methyl)-1H-1,2,3-triazol-4-yl)pyridin-3-yl)oxy)cyclohexane-1-carboxylic acid] was tested. Which IC50 did it give?
Answer: The IC50 was 101 nM.

Question: `CC[C@H](C)OC(=O)NCc1c(-c2ccc(O[C@H]3CCC[C@H](C(=O)O)C3)c(C)n2)nnn1C` [Example 175, (1S,3S)-3-((6-(5-((((S)-sec-butoxy-carbonyl)amino)methyl)-1-methyl-1H-1,2,3-triazol-4-yl)-2-methyl-pyridin-3-yl)oxy)cyclohexane-1-carboxylic acid] was tested. Which IC50 did it give?
Answer: The IC50 was 95 nM.

Question: With `Cc1nc(-c2nnn(C)c2CNC(=O)O[C@@H](C)C2CC2)ccc1O[C@H]1CCC[C@H](C(=O)O)C1` [Example 176, (1S,3S)-3-((6-(5-(((((S)-1-cyclo-propylethoxy)carbonyl)amino)methyl)-1-methyl-1H-1,2,3-triazol-4-yl)-2-methylpyridin-3-yl)oxy)cyclo-hexane-1-carboxylic acid] as the compound, how does the IC50 read?
Answer: The IC50 was 106 nM.

Question: How did the IC50 turn out when `Cc1nc(-c2nnn(C)c2CNC(=O)OC2CCC2)ccc1O[C@H]1CCC[C@H](C(=O)O)C1` [Example 177, (1S,3S)-3-((6-(5-(((cyclobutoxycarbonyl)amino)methyl)-1-methyl-1H-1,2,3-triazol-4-yl)-2-methyl-pyridin-3-yl)oxy)cyclohexane-1-carboxylic acid] was run?
Answer: The IC50 was 148 nM.

Question: For `Cc1nc(-c2nnn(C)c2CNC(=O)OC2CC(F)(F)C2)ccc1O[C@H]1CCC[C@H](C(=O)O)C1` [Example 178, (1S,3S)-3-((6-(5-((((3,3-difluoro-cyclobutoxy)carbonyl)amino)methyl)-1-methyl-1H-1,2,3-triazol-4-yl)-2-methylpyridin-3-yl)oxy)cyclo-hexane-1-carboxylic acid], which IC50 is on record?
Answer: Its IC50 is 102 nM.

Question: Which IC50 does the source give for `Cc1nc(-c2nnn(C)c2CNC(=O)OCC2CC2C)ccc1O[C@H]1CCC[C@H](C(=O)O)C1` (stereo partly drawn) [Example 179, (1S,3S)-3((2-methyl-6-(1-methyl-5-(((((2-methylcyclopropyl)methoxy)carbonyl)amino)methyl)-1H-1,2,3-triazol-4-yl)pyridin-3-yl)oxy)cyclohexane-1-carboxylic acid] here?
Answer: Its IC50 is 46 nM.

Question: `Cc1nc(-c2nnn(C)c2CNC(=O)OCCC(F)(F)F)ccc1O[C@H]1CCC[C@H](C(=O)O)C1` [Example 181, (1S,3S)-3-((2-methyl-6-(1-methyl-5-((((3,3,3-trifluoropropoxy)carbonyl)amino)methyl)-1H-1,2,3-triazol-4-yl)pyridin-3-yl)oxy)cyclohexane-1-carboxylic acid] was tested. Which IC50 did it give?
Answer: The IC50 was 96 nM.

Question: With `Cc1nc(-c2nnn(C)c2CNC(=O)OCC2CC(F)(F)C2)ccc1O[C@H]1CCC[C@H](C(=O)O)C1` [Example 182, (1S,3S)-3-((6-(5-(((((3,3-difluoro-cyclobutyl)methoxy)carbonyl)amino)methyl)-1-methyl-1H-1,2,3-triazol-4-yl)-2-methylpyridin-3-yl)oxy)cyclohexane-1-carboxylic acid] as the compound, how does the IC50 read?
Answer: The IC50 was 85 nM.

Question: With `Cc1nc(-c2nnn(C)c2CNC(=O)OCC(C)C2CC2)ccc1O[C@H]1CCC[C@H](C(=O)O)C1` (stereo partly drawn) [Example 184, (1S,3S)-3-((6-(5-((((2-cyclopropylpropoxy)carbonyl)amino)methyl)-1-methyl-1H-1,2,3-triazol-4-yl)-2-methylpyridin-3-yl)oxy)cyclo-hexane-1-carboxylic acid] as the compound, how does the IC50 read?
Answer: The IC50 was 41 nM.
